Data: patent US20230310333A1, “MESOPOROUS SILICA NANOPARTICLE CONTROLLED RELEASE SYSTEM, PREPARATION METHOD THEREFOR AND APPLICATION THEREOF” (East China University of Science and Technology, priority 2020, published 2023)

Assays:
diabetic mice = test: glucose challenge after patch or injection in diabetic mice (Example 41); assay type: in vivo, C57bl/6 mice; conditions: 12.0 IU/kg, glucose 1.5 g/kg i.p. after 2.5 h, compared with normal group
Description: 1.5 mg of M3-2 was added into 0.5 mL of ultrapure water, ultrasonically dispersed evenly. 0.25 g of hyaluronic acid (HA) was added, and stirred at room temperature until a homogeneous system was obtained to obtain an HA aqueous solution of M3-2, which was used as a pouring material of microneedle (Microneedles, MNs). 1 g of HA was added to 1 mL of ultrapure water and stirred at room temperature until clear and transparent to obtain a blank solution of HA, which was used as the base material of MNs. 50 μL HA aqueous solution of M3-2 was taken and added to the surface of the mold. […]
C57bl/6 mice (male, 4-6 weeks) were selected and fed adaptively for two weeks at room temperature of 24° C.±1° C., humidity of 55% for 12 h with bright cycle (8:00-20:00) with adequate water and feed. […] Fasting blood glucose was measured on the 3rd, 5th, 7th, 10th, and 21st days, and it was a stable diabetes model if it was greater than 16.65 mmol/L.
2 groups of diabetic mice and 1 group of normal mice (4 mice in each group) were taken. […] After 2.5 h of injection or patch, glucose (1.5 g/kg) was intraperitoneally injected into mice in the diabetes group and the normal group, and the blood sugar was detected.

diabetic rats [1] = test: glucose challenge 2.5 h after injection in diabetic rats (Example 38); assay type: in vivo, wistar rats; conditions: 4.1 IU subcutaneous in the neck, glucose 1.5 g/kg i.p. after 2.5 h, compared with normal group
Description: Male wistar rats of 4-6 weeks were selected and fed for two weeks. streptozotocin (STZ) was administered once in a dose of 180 mg/kg (administered according to the specific body weight of the rat). The STZ was weighed according to the weight of the rat, put in a sterilized bottle, then wrapped with tinfoil. The sodium citrate buffer solution and the STZ bottle were brought into the animal room under ice bath conditions. A sodium citrate buffer solution with a concentration of 1% STZ (1 g/100 ml) was prepared, and injected into the tail vein within 30 minutes to prevent inactivation. After injection of STZ, adequate drinking water and feed were given every day. Fasting blood sugar was measured on the 1st day, 7th day, and 10th day. If it was greater than 16.65 mmol/L, it was a stable diabetes model. 2 groups of diabetic rats and 1 group of normal rats (4 rats in each group) were taken. Diabetic rat groups were subcutaneously injected with (1) 2.0 mg M3-2 (4.1 IU) and (2) insulin (4.1 IU) in the neck respectively. After 2.5 h of injection, g lucose (1.5 g/kg) was intraperitoneally injected into rats in the diabetes group and the normal group, and the blood sugar was detected.

diabetic rats [2] = test: blood sugar of diabetic rats after subcutaneous injection (Example 37); assay type: in vivo, wistar rats; conditions: same dose (4.1 IU)
Description: Male wistar rats of 4-6 weeks were selected and fed for two weeks. streptozotocin (STZ) was administered once in a dose of 180 mg/kg (administered according to the specific body weight of the rat). The STZ was weighed according to the weight of the rat, put in a sterilized bottle, then wrapped with tinfoil. The sodium citrate buffer solution and the STZ bottle were brought into the animal room under ice bath conditions. A sodium citrate buffer solution with a concentration of 1% STZ (1 g/100 ml) was prepared, and injected into the tail vein within 30 minutes to prevent inactivation. After injection of STZ, adequate drinking water and feed were given every day. Fasting blood sugar was measured on the 1st day, 7th day, and 10th day. If it was greater than 16.65 mmol/L, it was a stable diabetes model. Diabetic rats were taken and divided into 4 groups (4 rats in each group). The group of diabetic rats were subcutaneously injected (1) 1.5 mg M3-2, (2) 2.0 mg M3-2 (4.1 IU), (3) 1.0 mL PBS buffer solution and (4) insulin (4.1 IU). Blood sugar in rats was monitored for a period of time after injection.

insulin
blood sugar regulation after intraperitoneal glucose (diabetic mice): the blood sugar quickly rises to a higher blood sugar level after glucose injection | blood sugar regulation after intraperitoneal glucose (diabetic rats [1]): the blood sugar quickly returns to a higher blood sugar level | duration of blood glucose at 100-200 mg/dL (diabetic rats [2]): 4.5 h
